From article PMC7156724, “Potent BRD4 inhibitor suppresses cancer cell-macrophage interaction” (Nature Communications, 2020)
Values joined by “and” are separate entries in the source; they are usually repeats but may differ in a detail not shown here. Identical values can stand only once. Like-named read-outs stand apart in the source and are kept apart here.

Experiments:
[1] = In vivo pharmacokinetics study, rat; set-up: species or system SD rat
Description: 4–6 weeks old female BALB/c nude mice were used for most experiments, with the exception of 6–8 weeks old female C57BL/6 mice were used for B16F10 experiments, and 6–8 weeks old male BALB/c nude mice and SD rats were used for pharmacokinetic experiments. All animals were purchased from Shanghai SIPPR-Bk Lab Animal Co., Ltd. All animals were housed under a regimen of 12 h light/12 h dark cycles and specific pathogen-free conditions. 5×10^6 NCI-H526, ES-2, MDA-MB231, A2780, A375, B16F10, and TMD-8 cells (0.1 ml) were injected subcutaneously into female nude mice. The melanoma patient-derived xenograft model was derived from a human melanoma sample (BRAF, NARS and NF1 wild type, and p53 mutant) removed from a patient in Xiangya Hospital. Surgically removed tumor fragments were implanted subcutaneously into female NSG mice. When the tumors grew to ~1000 mm^3, they were harvested and cryopreserved or immediately re-implanted for expansion or experiments. Mouse body weight and tumor sizes were measured every 3 days. Once the tumors grew to 150–200 mm^3, mice were treated with the compounds as described in the Figures. 1 × 10^6 A2780 cells (1 ml) were injected into the abdominal cavity of nude mice. Ascitic volume and tumor weight were measured by an electronic balance. All the procedures were evaluated and approved by the Institutional Animal Care and Use Committee of Central South University and Yale University.
Supplementary Figure 7. Pharmacokinetic profile of NHWD-870 using mouse and rat models.
(a,b) Plasma concentrations of NHWD-870 in healthy (a) mouse and (b) rat after intravenous (IV, 1.75 mg/kg for mouse and 1 mg/kg for rat) and oral (PO, 5 mg/kg) administration. Values shown on the right panels are mean ± SEM from 3 different animals. (c,d) Mean concentrations of NHWD-870 in the lungs (c) and tumors (d) of H526 xenograft model at the indicated hours after oral administration of 3 mg/kg NHWD-870 and BMS-98615821 on day 21. These mice were administrated the indicated drug daily for 21 days. Data are represented as mean ± SEM of 3 independent experiments. Source data are provided as a Source Data file. […]
9. In vivo pharmacokinetics study. Mouse and SD rat models were used to evaluate pharmacokinetic property of NHWD-870. NHWD-870 was administrated […]
Concentration of drugs in plasma, lung and tumor tissues were measured for the indicated time. […]

[2] = Metabolic stability assay, human liver microsomes; conditions: for Remaining in Human liver microsomes (Sup Fig.6e): in % (unit assumed)
Description: 7. Metabolic stability assay. The metabolic profile of NHWD-870 was determined using mouse, rat, dog, monkey, and human liver microsomes using the protocols […]
No. Compound ID Exat Mass Stock Conc.
1) 100 mM potassium phosphate buffer, PH7.4; 2) 10mM MgCI2
1) Intermediate solution: Dilute 5 μL of compound or control from stock solution (10 mM) with 45 uL DMSO,then mixed with 450 μL 1:1 Methanol/Water (Conc.: 10 0 […]
2) Working solution: Dilute 50 μL from intermediate solution with 450 μL 100 mM potassium phosphate buffer (Conc.: 10 μM, 4.5%MeOH)
(3) NADPH regenerating system (final Isocitric dehydrogenase conc.= 1 unit/mL at […]
1) β-Nicotinamide adenine dinucleotide phosphate, Vendor: sigma Cat. No. N0505
2) Isocitric acid, Vendor: Sigma Cat. No. I1252
3) Isocitric dehydrogenase, Vendor: sigma Cat. No. I2002
(4) Liver microsome solution preparation (final concentration o f 0.5 mg protein/mL) […]
Cold ACN including 100 ng/mL Tolbutamide and 100 ng/mL Labetalol as internal […]
1) Add 10 μL compound or control working solution/well to all plates (T0, T5, T10, T20, T30, T60, NCF60) except matrix blank.
2) Dispense 680 μL/well microsome solution to 96-well plate as reserv oir according to […]
plate map. Then add 80 μL/well to every plate by Apricot, incubate the mixture of microsome solution and compound at 37℃ for about 10 min.
3) Add 10 μL 100 mM potassium phosphate buffer/well to NCF60, incubate at 37℃, […]
4) After pre-warming, dispense 90 μL/well NADPH regenerating system to 96-well plate as reservoir according to the plate map. Then add 10 μL/well to every plate by Apricot to start reaction.
5) Incubate at 37℃, start timer 2.
6) Add 300 (μL/well) stop solution (cold in 4℃, including 100 ng/mL Tolbutamide and 100 ng/mL Labetalol) to terminate the reaction.
7) The sampling plates are shaked for approx 10 min.
8) Samples are centrifuged at 4000 rpm for 20 min under 4℃.
9) While centrifuging, load 8×new 96-well plate with 300 μL HPLC water, then transfer 100 μL supernatant, mixed for LC/MS/MS.
Use equation of first order kinetics to calculate t1/2 and Clin t(mic): […]
Equation of first order kinetics: […]

[3] = male, SD, plasma, iv, 1 mg/kg, IV 1 mg/kg
[4] = human, liver microsomes, pH 7.4

Compound: Cc1nnn(C)c1-c1cnc2c3c4cnn(C)c4ccc3n([C@H](c3ccccc3)C3CCOCC3)c2c1 [NHWD-870]
- AUCExtra ([1]; IV 1 mg/kg): 2.21±0.73%
- AUMCExtra ([1]; IV 1 mg/kg): 11.5±3.025%
- Cl ([1]; IV 1 mg/kg, 1 mg/kg): 3 L/h/kg
- T1/2 ([1]; IV 1 mg/kg, 1 mg/kg): 0.9 h
- Plasma Conc. ([1]; IV bolus, 5 min, individual animals, LLOQ 1.00 ng/mL): 0.362 µg/mL and 0.355 µg/mL
- Plasma Conc. ([1]; IV bolus, 0.25 h, individual animals, LLOQ 1.00 ng/mL): 0.274 µg/mL and 0.247 µg/mL
- Plasma Conc. ([1]; IV bolus, 0.5 h, individual animals, LLOQ 1.00 ng/mL): 0.208 µg/mL and 0.167 µg/mL
- Plasma Conc. ([1]; IV bolus, 1 h, individual animals, LLOQ 1.00 ng/mL): 0.0981 µg/mL and 0.112 µg/mL
- Plasma Conc. ([1]; IV bolus, 2 h, individual animals, LLOQ 1.00 ng/mL): 0.0481 µg/mL and 0.0403 µg/mL
- Plasma Conc. ([1]; IV bolus, 4 h, individual animals, LLOQ 1.00 ng/mL): 0.00888 µg/mL and 0.00814 µg/mL
- Plasma Conc. ([1]; IV bolus, 8 h, individual animals, LLOQ 1.00 ng/mL): BQL
- Plasma Conc. ([1]; IV bolus, 24 h, individual animals, LLOQ 1.00 ng/mL): BQL
- AUCExtra ([1]; PO 5 mg/kg): 3.97±1.15%
- AUMCExtra ([1]; PO 5 mg/kg): 11.8±2.615%
- Tlast ([1]; PO 5 mg/kg): 8 h
- Plasma Conc. ([1]; PO, 0.25 h, individual animals, LLOQ 1.00 ng/mL): 0.0188 µg/mL and 0.0133 µg/mL
- Plasma Conc. ([1]; PO, 0.5 h, individual animals, LLOQ 1.00 ng/mL): 0.0583 µg/mL and 0.0339 µg/mL
- Plasma Conc. ([1]; PO, 1 h, individual animals, LLOQ 1.00 ng/mL): 0.117 µg/mL and 0.106 µg/mL and 0.0546 µg/mL
- Plasma Conc. ([1]; PO, 2 h, individual animals, LLOQ 1.00 ng/mL): 0.111 µg/mL and 0.0735 µg/mL
- Plasma Conc. ([1]; PO, 4 h, individual animals, LLOQ 1.00 ng/mL): 0.0481 µg/mL and 0.0459 µg/mL
- Plasma Conc. ([1]; PO, 6 h, individual animals, LLOQ 1.00 ng/mL): 0.0202 µg/mL and 0.0159 µg/mL and 0.0505 µg/mL
- Plasma Conc. ([1]; PO, 8 h, individual animals, LLOQ 1.00 ng/mL): 0.00696 µg/mL and 0.00435 µg/mL and 0.00956 µg/mL
- Plasma Conc. ([1]; PO, 24 h, individual animals, LLOQ 1.00 ng/mL): BQL
- AUC(0-inf) ([1]; male, SD, plasma, IV 1 mg/kg): 0.331 ± 0.00645 µg·h/mL
- AUC(0-t) ([1]; male, SD, plasma, IV 1 mg/kg): 0.323 ± 0.00555 µg·h/mL
- C0 ([1]; male, SD, plasma, IV 1 mg/kg): 0.441 ± 0.0179 µg/mL
- MRT inf ([1]; male, SD, plasma, IV 1 mg/kg): 1.08 ± 0.021 h
- MRT last ([1]; male, SD, plasma, IV 1 mg/kg): 0.98 ± 0.045 h
- Vd ([1]; male, SD, plasma, IV 1 mg/kg, read-out: Vdss): 3.27 ± 0.0925 L/kg
- AUC(0-inf) ([1]; male, SD, plasma, PO 5 mg/kg): 0.398 ± 0.00915 µg·h/mL
- AUC(0-t) ([1]; male, SD, plasma, PO 5 mg/kg): 0.382 ± 0.0126 µg·h/mL
- Cmax ([1]; male, SD, plasma, PO 5 mg/kg): 0.101 ± 0.0118 µg/mL
- MRT inf ([1]; male, SD, plasma, PO 5 mg/kg): 3.28 ± 0.33 h
- MRT last ([1]; male, SD, plasma, PO 5 mg/kg): 3 ± 0.256 h
- Tmax ([1]; male, SD, plasma, PO 5 mg/kg): 1.67 ± 0.288 h
- bioavailability ([1]; male, SD, plasma, PO 5 mg/kg, calculated using AUCinf with nominal dose): 24%
- clearance [1, 3]: 3.02 ± 0.0579 L/h/kg
- half-life [1, 3]: 0.92 ± 0.0805 h
- concentration at 5 min ([1]; male, SD, plasma, iv, 1 mg/kg, IV bolus, 5 min, individual animals, LLOQ 1.00 ng/mL, read-out: Plasma Conc.): 0.392 µg/mL
- concentration at 0.25 h ([1]; male, SD, plasma, iv, 1 mg/kg, IV bolus, 0.25 h, individual animals, LLOQ 1.00 ng/mL, read-out: Plasma Conc.): 0.259 µg/mL
- concentration at 0.5 h ([1]; male, SD, plasma, iv, 1 mg/kg, IV bolus, 0.5 h, individual animals, LLOQ 1.00 ng/mL, read-out: Plasma Conc.): 0.168 µg/mL
- concentration at 1 h ([1]; male, SD, plasma, iv, 1 mg/kg, IV bolus, 1 h, individual animals, LLOQ 1.00 ng/mL, read-out: Plasma Conc.): 0.0961 µg/mL
- concentration at 2 h ([1]; male, SD, plasma, iv, 1 mg/kg, IV bolus, 2 h, individual animals, LLOQ 1.00 ng/mL, read-out: Plasma Conc.): 0.039 µg/mL
- concentration at 4 h ([1]; male, SD, plasma, iv, 1 mg/kg, IV bolus, 4 h, individual animals, LLOQ 1.00 ng/mL, read-out: Plasma Conc.): 0.00815 µg/mL
- concentration at 8 h ([1]; male, SD, plasma, iv, 1 mg/kg, IV bolus, 8 h, individual animals, LLOQ 1.00 ng/mL, read-out: Plasma Conc.): 0.00109 µg/mL
- half-life ([1]; male, SD, plasma, po, 5 mg/kg, PO 5 mg/kg): 1.48 ± 0.155 h
- concentration at 0.25 h ([1]; male, SD, plasma, po, 5 mg/kg, PO, 0.25 h, individual animals, LLOQ 1.00 ng/mL, read-out: Plasma Conc.): 0.0182 µg/mL
- concentration at 0.5 h ([1]; male, SD, plasma, po, 5 mg/kg, PO, 0.5 h, individual animals, LLOQ 1.00 ng/mL, read-out: Plasma Conc.): 0.0568 µg/mL
- concentration at 2 h ([1]; male, SD, plasma, po, 5 mg/kg, PO, 2 h, individual animals, LLOQ 1.00 ng/mL, read-out: Plasma Conc.): 0.11 µg/mL
- concentration at 4 h ([1]; male, SD, plasma, po, 5 mg/kg, PO, 4 h, individual animals, LLOQ 1.00 ng/mL, read-out: Plasma Conc.): 0.0455 µg/mL
- Remaining (T=60min) ([2]; human liver microsomes): 23.6%
- Remaining (*NCF=60min) ([2]; human liver microsomes, no cofactor): 74.4%
- CLint scaled at 1 µM [2, 4]: 2.72 L/h/kg
- half-life at 1 µM [2, 4]: 0.46 h
- microsomal CLint at 1 µM ([2]; human, microsomes, pH 7.4): 50.3 µL/min/mg
- half-life at 1 µM ([2]; mouse, rat, dog, monkey, human, liver microsomes, pH 7.4): 0.35 to 0.65 h
- Remaining in Human liver microsomes (Sup Fig.6e) ([2]; time 0): 100
- Remaining in Human liver microsomes (Sup Fig.6e) ([2]; time 5): 96.274
- Remaining in Human liver microsomes (Sup Fig.6e) ([2]; time 10): 76.421
- Remaining in Human liver microsomes (Sup Fig.6e) ([2]; time 20): 52.125
- Remaining in Human liver microsomes (Sup Fig.6e) ([2]; time 30): 39.904
- Remaining in Human liver microsomes (Sup Fig.6e) ([2]; time 60): 23.628
